Measured values reported in patent US12679837B2, “Aminopyrimidine compound as CDK2/4/6 triple inhibitor” (CISEN PHARMACEUTICAL CO., LTD, priority 2019, dated 2026).

Assays:
[1] = Pharmacokinetic evaluation in female Balb/c mice; type: in vivo; conditions: mouse, plasma
Experimental: Healthy adult female Balb/c mice used in this study were purchased from Shanghai Lingchang Biotechnology Co., Ltd.
1.11 mg of the compound to be tested was accurately weighed, 109.8 μL of DMSO was added and vortexed for 1 minute, 109.8 μL of solutol was added and vortexed for 1 minute to obtain a clear solution, then 878 μL of water was added and vortexed for 1 minute to obtain the final solution with a final concentration of 1 mg/mL, the dosing vehicle was 10% DMSO+10% solutol+80% water. The solution in the intravenous injection group was filtered with a 2 μm filter before administration.
1.61 mg of the compound to be tested was accurately weighed, 796 μL of 1% HPMC was added, sonicated at 45° C. for 20 minutes, and stirred for 15 minutes to obtain a homogeneous suspension solution with a final concentration of 2 mg/mL. The dosing vehicle was 1% HPMC.
4 female Balb/c mice were divided into 2 groups according to 2 mice in each group. The first group was given 2 mg/kg of the compound to be tested by intravenous injection; the second group was given 10 mg/kg of the compound to be tested by gavage.
The blood was collected from two animals at each time point by continuous blood collection. 30 μL of whole blood was collected before administration and at 0.0833, 0.25, 0.5, 1, 2 (only gavage group), 4, 6, 8 (only intravenous group), and 24 hours after administration, respectively. The whole blood was placed in an anticoagulant tube, centrifuged at 3200 g for 10 minutes at 4° C., the plasma was prepared and stored at −80° C. Drug concentration in the plasma was determined by LC/MS-MS.

CDK2/CyclinE1 = target: T1, CDK2/CyclinE1 (Homo sapiens, UniProt P24941); experiment: CDK2/CyclinE1 kinase activity test (ADP-Glo); type: biochemical; conditions: 150 μM ATP, 25° C., 60 minutes; read-out: Enzyme activity data (IC50) CDK2/CyclinE1
T1 construct: purchased Promega
Experimental: Nivo Multilabel Analyzer (PerkinElmer).
Experimental method: Kinase buffer dilution enzyme in the kit, substrate, adenosine triphosphate and inhibitor were used. The compounds to be tested were diluted 5-fold to the 8th concentration with a row gun, that is, from 50 μM to 0.65 nM, the concentration of DMSO was 5%, and a double-replicate well experiment was set up. […] The reaction system was placed at 25° C. and reacted for 60 minutes. After the reaction was complete, 5 μL of ADP-Glo reagent was added to each well, and the reaction was continued at 25° C. for 40 minutes. At the end of the reaction, 10 μL of kinase detection reagent was added to each well. After the reaction was continued at 25° C. for 30 minutes, the chemiluminescence was read by a multi-label analyzer with an integration time of 0.5 seconds.
(§1) Using the equation (Sample−Min)/(Max−Min)×100% to convert the original data into inhibition rate, the IC50 value can be obtained by curve fitting with four parameters (obtained by the mode of log(inhibitor) vs. response—Variable slope in GraphPad Prism). Table 1 provides the enzymatic inhibitory activities of the compounds of the present invention on CDK2/CyclinA2, CDK2/CyclinE1, CDK4/CyclinD1, CDK6/CyclinD1, CDK9/CyclinT1.

CDK2/CyclinA2 = target: T2, CDK2/CyclinA2 (Homo sapiens, UniProt P24941); experiment: CDK2/CyclinA2 kinase activity test (ADP-Glo); type: biochemical; conditions: 50 μM ATP, 25° C., 60 minutes; read-out: Enzyme activity data (IC50) CDK2/cyclinA
T2 construct: purchased Promega
Experimental: Experimental materials: CDK2/CyclinA2 kinase detection kit was purchased from Promega. Nivo Multilabel Analyzer (PerkinElmer).
Experimental method: Kinase buffer dilution enzyme in the kit, substrate, adenosine triphosphate and inhibitor were used. The compounds to be tested were diluted 5-fold to the 8th concentration with a row gun, that is, from 50 μM to 0.65 nM, the concentration of DMSO was 5%, and a double-replicate well experiment was set up. 1 μL of each concentration gradient of inhibitor, 2 μL of CDK2/CyclinA2 enzyme (1.6 ng), and 2 μL of a mixture of substrate and ATP (50 μM of adenosine triphosphate, 0.1 μg/μL of substrate) were added to the microplate, and at this time, the final concentration gradient of compound was diluted from 10 μM to 0.13 nM. The reaction system was placed at 25° C. and reacted for 60 minutes. After the reaction was complete, 5 μL of ADP-Glo reagent was added to each well, and the reaction was continued at 25° C. for 40 minutes. At the end of the reaction, 10 μL of kinase detection reagent was added to each well. After the reaction was continued at 25° C. for 30 minutes, the chemiluminescence was read by a multi-label analyzer with an integration time of 0.5 seconds.
as §1

HCT116 cells = experiment: HCT116 cell activity test (CellTiter-Glo); type: cell-based; conditions: Homo sapiens, HCT-116, 96 h, 4 days, read-out: Antiproliferative activity (IC50) HCT 116
Experimental: Experimental materials: McCoy' 5a medium, fetal bovine serum, and penicillin/streptomycin antibiotics were purchased from Vicente. CellTiter-Glo (chemiluminescence detection reagent for cell viability) reagent was purchased from Promega. The HCT116 cell line was purchased from Cobioer Biosciences Co., Ltd. Nivo Multilabel Analyzer (PerkinElmer).
Experimental method: HCT116 cells were seeded in a white 96-well plate, 80 μL of cell suspension per well, which contained 1000 HCT116 cells. The cell plate was incubated overnight in a carbon dioxide incubator. The compounds to be tested were diluted 5-fold to the 9th concentration with a row gun, that is, from 2 mM to 5.12 nM, and a double-replicate well experiment was set up. 78 μL of medium was added to the middle plate, and then transferred 2 μL per well of the gradient diluted compound to the middle plate according to the corresponding position, mixed well and transferred 20 μL per well to the cell plate. […] Another cell plate was prepared, and the signal value was read as the maximum value (Max value in the equation below) on the day of drug addition to participate in data analysis. 25 μL of chemiluminescence detection reagent for cell viability was added to each well of the cell plate, and incubated at room temperature for 10 minutes to stabilize the luminescence signal. A multi-label analyzer was used for reading. […]

clearance ([1]; Intravenous Injection: 2 mg/kg, read-out: Clearance Rate Cl): 36.9 mL/min/kg | half-life ([1]; Intravenous Injection: 2 mg/kg, read-out: Half-Life T1/2 (converted)): 16.8 min | bioavailability ([1]; Oral Administration: 10 mg/kg, read-out: Oral Bioavailability F): 31.4% | AUC(0-t) ([1]; Oral Administration: 10 mg/kg, read-out: Oral Exposure AUC0-t): 3.37 µM·h | IC50 (CDK2/CyclinE1): 1.19 nM | IC50 (CDK2/CyclinA2): 0.28 nM | IC50 (HCT116 cells): 70 nM
Compound: C[C@@]1(O)CCC[C@H]1N1C(=O)CCc2cnc(NC3CCN(S(C)(=O)=O)CC3)nc21 [Compound 1A]
